Laboratory results taken from the NIST ThermoML archive (doi:10.1016/j.tca.2010.07.023).
Numbers after ± are expanded uncertainties.

What was measured:
[1] = Molar enthalpy of transition or fusion; conditions: DSC
[2] = DTA

Row | Molar enthalpy of transition or fusion ([1]; Crystal 1) [kJ/mol] | Molar enthalpy of transition or fusion ([1]; Crystal 2) [kJ/mol] | Molar enthalpy of transition or fusion ([1]; Crystal 3) [kJ/mol] | Triple point temperature ([2]; Crystal 1) [K] | Triple point temperature ([2]; Crystal 2) [K] | Triple point temperature ([2]; Crystal 3) [K] | SMILES
1 | 5.9 ± 0.3 | 0.17 ± 0.1 | 1.3 ± 0.3 | 448 ± 1.5 | 364 ± 5 | 206.1 ± 1.4 | CC12CCC(CC1=O)C2(C)C (configuration not stated) [1,7,7-trimethylbicyclo[2.2.1]-2-heptanone]
2 | 6.3 ± 0.5 | 0.16 ± 0.1 | 11.2 ± 0.5 | 451.8 ± 1.4 | 370 ± 4 | 242.7 ± 1.4 | CC1(C)[C@@H]2CC[C@@]1(C)C(=O)C2 [d-camphor]
